Three compounds from patent US11225505B2, “Antimicrobial polymyxin derivative compounds” (MONASH UNIVERSITY, priority 2015, dated 2022) can be followed below.

Structures are written as SMILES. In brackets after ≈: the same amount, converted by molar mass. Where a SMILES comes first, the peptide text is derived from it. Bridges are numbered along the chain shown (N, C = ends). [ ]: non-standard residue; d: D form. The star is where a group is joined. X4 = O=C(c1cncc(C(F)(F)F)c1)*; X5 = Cc1ccc2nc(C(=O)*)cn2c1; X1 = O=C(c1ncc(Cl)cc1Cl)*; Dab = NCC[C@H](N)C(=O)O; Abu = CC[C@H](N)C(=O)O; Dap = NC[C@H](N)C(=O)O

Common to all, as to format: cell-based
Experiment [1] has as its system Acinetobacter baumannii FADDI-AB030. The experiment in a line: microbe, parasite or virus in culture. As to conditions: FADDI-AB030. In short, it runs like this:
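Lipopeptide TFA salts tested against the multidrug-resistant clinical isolate by CLSI (M100-S24) broth microdilution in cation-adjusted Mueller-Hinton broth, with polymyxin B sulphate as control; MIC read.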

For experiment [2], the system named is Pseudomonas aeruginosa FADDI-PA01. As to conditions: FADDI-. In short, it runs like this:
(§1)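 Lipopeptides (TFA salts) tested against Gram-negative strains by CLSI broth microdilution using cation-adjusted Mueller-Hinton broth; MIC recorded, polymyxin B sulphate as control.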

Experiment [3] deals with Pseudomonas aeruginosa ATCC 27853. Particulars: ATCC 27853. The method in brief: as §1
For experiment [4], the system named is Enterobacter cloacae FADDI-EC001. Particulars: FADDI-EC001. The method in brief:
(§2)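 Gram-negative bacteria susceptible to polymyxin were exposed to lipopeptide trifluoroacetates in CAMHB, and growth inhibition was read as the MIC by the CLSI microdilution protocol.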

Experiment [5] has as its system Klebsiella pneumoniae Kp BM1. Particulars: Kp BM1. In short, it runs like this:
as §2

In experiment [6] the test system is Klebsiella pneumoniae FADDI-KP032. As to conditions: FADDI-KP032. The method in brief:
as §1

For experiment [7], the system named is Pseudomonas aeruginosa FADDI-PA022. As to conditions: FADDI-PA022. In short, it runs like this:
as §1

Experiment [8] concerns Acinetobacter baumannii ATCC 17978. As to conditions: ATCC 17978. The method in brief:
as §1

For experiment [9], the system named is Enterobacter cloacae FADDI-EC003. As to conditions: FADDI-EC003. The method in brief: as §1
The subject of experiment [10] is Klebsiella pneumoniae FADDI-KP022. As to conditions: FADDI-KP022. The method in brief:
as §1

The test system of experiment [11] is Acinetobacter baumannii FADDI-AB034. Particulars: FADDI-AB034. In short, it runs like this:
as §1

Experiment [12] relates to Pseudomonas aeruginosa FADDI-PA038. As to conditions: FADDI-PA038. In short, it runs like this:
as §1

Experiment [13] deals with Enterobacter cloacae FADDI-EC006. As to conditions: FADDI-EC006. The method in brief: as §1

As for `CC[C@@H]1NC(=O)[C@@H](CC(C)C)NC(=O)[C@H](CCN)NC(=O)[C@@H](NC(=O)[C@H](CN)NC(=O)[C@@H](NC(=O)[C@H](CCN)NC(=O)c2cncc(C(F)(F)F)c2)[C@@H](C)O)CCNC(=O)[C@H]([C@@H](C)O)NC(=O)[C@H](CCN)NC(=O)[C@H](CCN)NC1=O` [Compound 20] (X4-[Dab]T[Dap][Dab][Dab][dL][Abu][Dab][Dab]T; lactam 4-C), the Minimum inhibitory concentration was found to be 0.5 µg/mL (≈ 0.431 µM) in [1]; 0.5 µg/mL (≈ 0.431 µM) in experiment [2]; 0.5 µg/mL (≈ 0.431 µM) in experiment [3]; 0.5 µg/mL (≈ 0.431 µM) in experiment [4]; 0.25 µg/mL (≈ 0.215 µM) in experiment [5]; 0.5 µg/mL (≈ 0.431 µM) in experiment [6]. The Minimum inhibitory concentration in [7] is 0.5 µg/mL (≈ 0.431 µM); in experiment [8], 2 µg/mL (≈ 1.72 µM); in experiment [9], 4 µg/mL (≈ 3.45 µM); in experiment [10], less than 0.125 µg/mL; in [11] it was 0.5 µg/mL (≈ 0.431 µM); in experiment [12], 0.5 µg/mL (≈ 0.431 µM). Further, the Minimum inhibitory concentration in experiment [13] was 0.5 µg/mL (≈ 0.431 µM).

Consider `CC(C)C[C@H]1NC(=O)[C@H](CCN)NC(=O)[C@@H](NC(=O)[C@H](CN)NC(=O)[C@@H](NC(=O)[C@H](CCN)NC(=O)c2ncc(Cl)cc2Cl)[C@@H](C)O)CCNC(=O)[C@H]([C@@H](C)O)NC(=O)[C@H](CCN)NC(=O)[C@H](CCN)NC(=O)[C@H]([C@@H](C)O)NC1=O` [Compound 8] (X1-[Dab]T[Dap][Dab][Dab][dL]T[Dab][Dab]T; lactam 4-C), for which the Minimum inhibitory concentration in [1] is 4 µg/mL (≈ 3.4 µM); in [2], 0.5 µg/mL (≈ 0.425 µM); in [3] it was 0.25 µg/mL (≈ 0.212 µM); in [4] it was less than 0.125 µg/mL; in experiment [5] it was 0.5 µg/mL (≈ 0.425 µM); in experiment [6], 0.5 µg/mL (≈ 0.425 µM). In addition, the Minimum inhibitory concentration in [7] was 0.5 µg/mL (≈ 0.425 µM); in [8] it was 4 µg/mL (≈ 3.4 µM); in [9], 0.25 µg/mL (≈ 0.212 µM); in [10], less than 0.125 µg/mL; in [11], 4 µg/mL (≈ 3.4 µM); in experiment [12], 0.5 µg/mL (≈ 0.425 µM). The Minimum inhibitory concentration in [13] is 0.25 µg/mL (≈ 0.212 µM).

For the compound `CC[C@@H]1NC(=O)[C@@H](CC(C)C)NC(=O)[C@H](CCN)NC(=O)[C@@H](NC(=O)[C@H](CN)NC(=O)[C@@H](NC(=O)[C@H](CCN)NC(=O)c2cn3cc(C)ccc3n2)[C@@H](C)O)CCNC(=O)[C@H]([C@@H](C)O)NC(=O)[C@H](CCN)NC(=O)[C@H](CCN)NC1=O` [Compound 49] (X5-[Dab]T[Dap][Dab][Dab][dL][Abu][Dab][Dab]T; lactam 4-C), the Minimum inhibitory concentration is 1 µg/mL (≈ 0.873 µM) in experiment [1]; 0.25 µg/mL (≈ 0.218 µM) in [2]; 0.25 µg/mL (≈ 0.218 µM) in [3]; less than 0.125 µg/mL in [4]; 0.25 µg/mL (≈ 0.218 µM) in [5]; less than 0.125 µg/mL in experiment [6]. The Minimum inhibitory concentration in experiment [7] is 0.5 µg/mL (≈ 0.437 µM); in experiment [8], 2 µg/mL (≈ 1.75 µM); in experiment [9], less than 0.125 µg/mL; in experiment [10], less than 0.125 µg/mL; in experiment [11] it was 4 µg/mL (≈ 3.49 µM); in [12] it was 0.5 µg/mL (≈ 0.437 µM). In experiment [13], this compound showed a Minimum inhibitory concentration of 1 µg/mL (≈ 0.873 µM).
